Data: US20080206287A1, “Use of cyclosporin A to sensitize resistant cancer cells to death receptor ligands” (priority 2006, published 2008)
“Also recorded” adds a separate entry of the source. Residues, ends and D or L forms follow the SMILES beside them. *: point of attachment. Cbz = O=C(OCc1ccccc1)*; CH2F = FC*

What was measured:
PPC-1 cells [1] = conditions: positive control, Kim et al. 2002; cited from earlier work
FLIP [2] = conditions: Kim et al. 2002; cited from earlier work
PPC-1 cells [3] = assay: Annexin V apoptosis with CH-11, sensitizers and caspase inhibitors; format: cell-based; conditions: CH-11 and sensitizers such as 6094911, 5809354, 5569100, 12 hours
Experimental: (§1) Cell death assays. Cell viability was measured by MTT and MTS assays, essentially as described in Schimmer et al. (Cancer Cell 5:25-35, 2004). Absorbance readings were plotted against a standard curve to derive the corresponding cell number, and cell viability was expressed as a percentage relative to untreated cells. Apoptosis was measured by flow cytometric analysis of Annexin V surface expression after staining cells with FITC-anti-Annexin V and propidium iodide (PI) (Biovision, Mountain View, Calif.), as described in Pedersen et al. (Blood 100:2965-72, 2002).
Caspase-dependent induction of apoptosis by combination treatment with CH-11 and FAS-sensitizing compounds. To further assess the mechanism of the 8 compounds that selectively modulated tumor sensitivity to extrinsic pathway stimuli, the effects of […]-Val-Ala-Asp-fluoromethylketone (zVAD-fmk), a broad-spectrum irreversible inhibitor of caspase-family proteases (Enzyme Systems, Dublin, Calif.) was tested. Accordingly, PPC-1 cells were treated with CH-11 and sensitizers such as 6094911, 5809354, and 5569100 with and without zVAD-fmk (100 μM) for 12 hours. Apoptosis was then measured by Annexin V staining.

FLIP [4] = assay: FLIP protein immunoblot; format: cell-based, human
Experimental: Immunoblot analysis. Protein extracts were obtained by washing cells with phosphate-buffered saline (PBS) [pH 7.4] and suspending the cells in lysis buffer [10 mM Tris (pH 7.4), 150 mM NaCl, 0.1% Triton X-100, 0.5% sodium deoxycholate, and 5 mM EDTA] containing protease inhibitors (Complete tablets; Roche, Indianapolis, Ind.). Immunoblot assays were performed as described in Carter et al. (Blood 105:4043-4050, 2005). Briefly, equal amounts of protein as determined by a Bradford assay (Bradford, Anal. Biochem. 72:248-54, 1976) were subjected to SDS-PAGE (4-20% gradient gels from ISC BioExpress, Kaysville, Utah), followed by transfer to nitrocellulose membranes. Membranes were incubated with mouse monoclonal anti-human FLIP (NF6 clone) (1:500 v/v) (Alexis, San Diego, Calif.), 1:1,000 (v/v) anti-aspase-8 clone 5F7 (Upstate) and mouse monoclonal anti-tubulin (1:2000 v/v) (Sigma Inc). Secondary antibodies consisted of horseradish peroxidase-conjugated goat anti-rabbit IgG or goat anti-mouse IgG (Bio-Rad, Hercules, Calif.). Detection was performed by the enhanced chemiluminescence method (Pierce, Rockford, Ill.).
Effects of sensitizing compounds on FLIP protein. Since FAS-sensitizing compounds 6094911 and 5809354 modulate the extrinsic pathway downstream of TNF-family death receptors but upstream of effector caspases, the effects of those compounds on expression of FLIP, an intracellular antiapoptotic protein that binds caspases-8 and -10 and is capable of suppressing death receptor signaling at a proximal point within the extrinsic pathway, was examined. For these experiments, PPC-1 cells were treated with sensitizing compounds in the presence or absence of CH-11 antibody, then cell lysates were prepared 24 hours later, and analyzed by immunoblotting for FLIP.
The levels of the short isoform of FLIP were less than 5% of total FLIP protein as measured by immunoblotting and quantitative densitometry. Therefore, given the very low levels of the short isoform, the analysis was limited to the effects of the compounds on the long isoform of FLIP.

PPC-1 cells [5] = assay: Extrinsic (CH-11, TRAIL) versus intrinsic (VP-16, STS) pathway stimuli, MTT; format: cell-based; conditions: MTT 24 hours
Text: Identification of small molecules that specifically sensitize to extrinsic pathway. The nine compounds identified using anti-FAS antibody screening theoretically could non-specifically sensitize tumor cells to apoptotic stimuli or they could be selective for the extrinsic pathway. To distinguish between these two possibilities, the effects of compounds on apoptosis induced by extrinsic pathway stimuli (e.g., CH-11 antibody; TRAIL) were compared to the effects on the intrinsic pathway stimuli (e.g., etoposide [VP16]; staurosporine [STS]). Accordingly, PPC-1 cells were treated with various concentrations of compounds with or without CH-11, TRAIL, VP-16, or STS, and 24 hours later, cell viability was measured by MTT assays.

PPC-1 cells [6] = assay: PPC-1 cell viability (MTT) with or without CH-11 anti-FAS antibody; format: cell-based; conditions: Homo sapiens, PPC-1, read-out: EC50 as a FAS-sensitizer in PPC1 cells
Experimental: High throughput screening. Screens were performed using a fully integrated, programmable robotic liquid handling system (Biomek® FX, Beckman-Coulter Inc., Fullerton, Calif.), with integrated plate reader (LJL analyst HT 96-384, Sunnyvale, Calif.) and environmentally controlled plate carousel set at 37° C. and 5% CO2:95% air. PPC-1 cells (1×10^4) were seeded overnight into 96 well, flat-bottom plates (Costar, Cambridge, Mass.) in 100 μL of medium containing 2.5% FCS. The next day, aliquots from the 50,000 compound Diversa library were added at a final concentration of 7.5 μg/mL (about 25 μM) in a final concentration of 0.5% (v:v) dimethylsulfoxide (DMSO). CH-11 antibody (100 ng/mL) was then added, and the cells were incubated for 24 hours before assessing cell viability by a 3-(4,5-Dimethylthiazol-2-yl)-2,5-diphenyltetrazolium Bromide (MTT) dye reduction assay (Sigma).
as §1
Statistics. Cytotoxicity induced by compounds used in combination with conventional agents (e.g., CH-11, TRAIL, VP-16 and staurosporine) was evaluated for evidence of synergy toxicity by comparing the slopes of the dose-response curves. If the combination of the potential sensitizing compound with the conventional agent increased the slope of the dose-response curve compared to the slopes of either the sensitizer or the conventional agent alone, then the interaction was considered synergistic. […] Statistical significance was defined as a p<0.01, using two-sided tests. Synergy was confirmed by performing multiple drug dose-effect calculations using the Median Effect methods as described in Chou (“The Median-Effect Principle and the Combination Index for Quantitation of Synergism and Antagonism.” In: D. C. Rideout and T. C. Chou (eds.), Synergism and Antagonism in Chemotherapy, pp. 61-102: Academic Press, Inc., 1991).
Identification of small molecule FAS sensitizers. Resistance to death receptor ligands may permit malignant cells to escape immune surveillance and limit the clinical efficacy of recombinant death receptor ligands such as TRAIL. To identify small molecules that restore sensitivity to death receptor ligands, a cell-based high throughput screen was performed using the FAS and TRAIL-resistant prostate cancer cell line PPC-1 and a commercially available 50,000 compound library. The screens were performed in 96 well plates, to which compounds were added at 7.5 μg/ml (about 25 μM), followed by agonistic anti-FAS monoclonal antibody CH-11 (100 ng/mL). Cell viability was measured 24 hours later by MTT assay. […] The coefficient of variation (CV) for PPC-1 cells treated with CH-11 alone was determined to be 5%, based on 90 replicate determinations. A 50% decrease in cell viability was used as a cut-off for scoring hits.
From the primary screen of 50,000 compounds, 313 reproducible hits were obtained. To determine whether any of the 313 compounds were toxic molecules as opposed to FAS-sensitizers, the 313 compounds were evaluated in secondary screens where PPC-1 cells were treated with increasing concentrations of the compounds in the presence or absence of CH-11 antibody. Through these secondary screens, nine sensitizers were identified that increased CH-11-mediated killing above the cell death produced by treatment of the cells with the compound alone (Table 1). […]

For `CC1(C)CC[C@]2(C(=O)O)CC[C@]3(C)[C@H](C(=O)C=C4[C@@]5(C)C=C(C#N)C(=O)C(C)(C)[C@@H]5CC[C@]43C)[C@@H]2C1` [CDDO, 2-cyano-3,12-dioxooleana-1,9-dien-28-oic acid], the “sensitization of PPC-1 cells to TNF-family death receptors and ligands” value (PPC-1 cells [1]) is listed as “sensitize PPC-1 cells to TNF-family death receptors and ligands” and the FLIP protein levels (FLIP [2]) is listed as “reduce FLIP protein levels; also recorded: reduces FLIP expression”.

With `COC(=O)C[C@H](NC(=O)[C@H](C)NC(=O)[C@@H](NC(=O)OCc1ccccc1)C(C)C)C(=O)CF` [zVAD-fmk, reference compound] (Cbz-Val-Ala-Asp(OMe)-CH2F) the “effect of caspase inhibitor on apoptosis by CH-11 plus sensitizers” value (PPC-1 cells [3]) was “blocked sensitization to CH-11” and the “effect of caspase inhibitor pre-treatment on reductions in FLIP protein” value (FLIP [4]; pre-treatment before 5809354 or 5569100) was “did not prevent reductions in FLIP protein”.

For `C[n+]1ccn2c3c(c4cc(C5CCCCC5)ccc42)CCCc31.[I-]` [compound 5362611, 8-Cyclohexyl-3-methyl-5,6-dihydro-4H-pyrazino[3,2,1-jk]carbazol-3-ium; iodide], the “sensitization to extrinsic (CH-11, TRAIL) and intrinsic (VP-16, STS) pathway stimuli” value (PPC-1 cells [5]) was “sensitized to both the death receptor (extrinsic) and mitochondrial pathway (intrinsic) stimuli”.

In the case of `Cn1c(=N)n(CC(=O)c2cc(C(C)(C)C)c(O)c(C(C)(C)C)c2)c2ccccc21` [compound 5541203, 1-(3,5-Di-tert-butyl-4-hydroxy-phenyl)-2-(2-imino-3-methyl-2,3-dihydro-benzoimidazol-1-yl)-ethanone], the “levels of FLIP protein (long isoform)” value (FLIP [4]; PPC-1 cells, with or without CH-11, 24 hours, immunoblot) is reported as “had little effect” and the EC50 (PPC-1 cells [6]) is reported as 25.7 µM.
